This series deals with adult zebrafish, paclitaxel induced nerve damage. The series can be described thus: Paclitaxel-induced peripheral neuropathy in adult zebrafish (tail fin stimulation). The settings on record: 3 μL of 10-μM paclitaxel, four consecutive days (Days 2-5), FIG. 9. The class given is in vivo. Here is the method:
Method to evaluate potential of compounds of Formula 1 to reduce or block chemotherapy-induced peripheral neuropathy—Animal (zebrafish) model described below and in literature (Lisse T S et al PNAS 113 (15) E2189-E2198) was used to evaluate potential of compounds of Formula 1 to reduce or block neuronal damage induced by chemotherapeutics.
To induce peripheral neuropathy in adult zebrafish, 3 μL of a 10-μM paclitaxel solution in 0.15% DMSO was administered with a 33 gauge Hamilton Syringe for a zebrafish with average ˜200 mg body weight. Fish were treated with vehicle alone or paclitaxel for four consecutive days (Days 2-5) or paclitaxel with Compound A (10- or 30 ng). Compound A was dosed orally by mixing with the fish feed pellets. Fishes were conditioned to consume three pellets a day. […] To prepare test compound infused pellet, a known quantity of the compound was mixed with the known quantity of the feed powder and were extruded in to 4 mg pellet containing the desired administration dose per pellet. Concentration of test compound dosed per fish were controlled by the number of pellets and the quantity of compound per pellet. […]
To determine the peripheral nerve damage, fish were wrapped in plastic foil until calm, and the distal tail fin was stimulated with an insect pin until twitching of the fish was observed. Number of stimuli until twitch was recorded.

`CC(=O)O[C@H]1C(=O)[C@@]2(C)[C@H]([C@H](OC(=O)c3ccccc3)[C@]3(O)C[C@H](OC(=O)[C@H](O)[C@@H](NC(=O)c4ccccc4)c4ccccc4)C(C)=C1C3(C)C)[C@]1(OC(C)=O)CO[C@@H]1C[C@@H]2O` [paclitaxel]: the “peripheral nerve damage (number of stimuli until twitch) compared to vehicle alone” value was “significant nerve damage”.
